Legend:
Assay type in all cases: in vivo
[1] = tested on: STEME; assay: Post-emergence herbicidal action; settings: Table 6, post-emergence (PO), 320 g/ha, assessed after about 3 weeks
Description: (§1) Seeds of monocotyledonous and dicotyledonous weed and crop plants are laid out in sandy loam soil in wood-fiber pots, covered with soil and cultivated in a greenhouse under good growth conditions. 2 to 3 weeks after sowing, the test plants are treated at the one-leaf stage. The compounds of the invention, formulated in the form of wettable powders (WP) or as emulsion concentrates (EC), are then sprayed onto the green parts of the plants in the form of an aqueous suspension or emulsion at a water application rate equating to 600 to 800 l/ha, with addition of 0.2% wetting agent. After the test plants have been left to stand in the greenhouse under optimal growth conditions for about 3 weeks, the action of the preparations is assessed visually in comparison to untreated controls (herbicidal action in percent (%): 100% activity=the plants have died, 0% activity=like control plants). […] At the same time, inventive compounds leave Gramineae crops such as barley, wheat, rye, millet/sorghum, corn or rice virtually undamaged when applied post-emergence, even at high active ingredient dosages. In addition, some substances are also harmless to dicotyledonous crops such as soya, cotton, oilseed rape, sugar beet or potatoes. Some of the compounds according to the invention have high selectivity and are therefore suitable for controlling unwanted vegetation in agricultural crops by the post-emergence method. The tables below illustrate, in an exemplary manner, the post-emergence herbicidal action of the compounds according to the invention, the herbicidal activity being stated in percent.

[2] = tested on: ABUTH; assay: Post-emergence herbicidal action; settings: 320 g/ha, assessed after about 3 weeks
Description: as §1

[3] = tested on: SETVI; assay: Post-emergence herbicidal action; settings: Table 6, post-emergence (PO), 320 g/ha, assessed after about 3 weeks
Description: as §1

[4] = tested on: AMARE; assay: Post-emergence herbicidal action; settings: 320 g/ha, assessed after about 3 weeks
Description: as §1

[5] = tested on: ECHCG; assay: Pre-emergence herbicidal action; settings: Table 4, pre-emergence (PE), 320 g/ha, scored after 3 weeks
Text: (§2) Seeds of monocotyledonous and dicotyledonous weed plants and crop plants are laid out in sandy loam soil in wood-fiber pots and covered with soil. The compounds of the invention, formulated in the form of wettable powders (WP) or as emulsion concentrates (EC), are then applied to the surface of the covering soil in the form of an aqueous suspension or emulsion at a water application rate equating to 600 to 800 I/ha, with addition of 0.2% wetting agent. After the treatment, the pots are placed in a greenhouse and kept under good growth conditions for the trial plants. The damage to the test plants is scored visually after a test period of 3 weeks by comparison with untreated controls (herbicidal activity in percent (%): 100% activity=the plants have died, 0% activity=like control plants).
(§3) At the same time, inventive compounds leave Gramineae crops such as barley, wheat, rye, millet/sorghum, corn or rice virtually undamaged when applied pre-emergence, even at high active ingredient dosages. In addition, some substances are also harmless to dicotyledonous crops such as soya, cotton, oilseed rape, sugar beet or potatoes. […] The tables below illustrate, in an exemplary manner, the pre-emergence herbicidal action of the compounds according to the invention, the herbicidal activity being stated in percent.

[6] = tested on: AMARE; assay: Pre-emergence herbicidal action; settings: Table 4, pre-emergence (PE), 320 g/ha, scored after 3 weeks
Text: as §2, §3

SMILES	Herbicidal action against STEME [1]	Herbicidal action against ABUTH ([2]; Table 6, post-emergence (PO))	Herbicidal action against SETVI [3]	Herbicidal action against AMARE ([4]; Table 6, post-emergence (PO))	Herbicidal action against ECHCG [5]	Herbicidal action against AMARE [6]	Herbicidal action against ABUTH ([2]; Table 9, post-emergence (PO))	Herbicidal action against AMARE ([4]; Table 9, post-emergence (PO))
Nc1cc(-c2ccc3ccoc3c2)nc(C(=O)OCc2ccc(F)c(F)c2F)c1Cl [Example I-23]	100%	90%	90%	100%	90%	100%		
Nc1cc(-c2ccc3occc3c2)nc(C(=O)OCc2ccc(F)cc2F)c1Cl [Example I-24]	80%	100%	80%	100%	60%	90%		
Nc1cc(-c2ccc3ccoc3c2)nc(C(=O)OCc2ccc(F)cc2)c1Cl [Example I-26]	100%	100%	100%	100%	70%	100%		
Nc1cc(-c2ccc3ccoc3c2)nc(C(=O)OCc2cc(F)c(F)cc2F)c1Cl [Example I-27]	100%	90%	80%	100%	60%	100%		
COc1c(F)ccc(COC(=O)c2nc(-c3ccc4ccoc4c3)cc(N)c2Cl)c1F [Example I-28]	100%	100%	100%	100%	90%	100%		
Nc1cc(-c2ccc3ccoc3c2F)nc(C(=O)OCc2cccc(Cl)c2)c1Cl [Example I-33]	90%	90%	80%	100%	20%	90%		
Nc1cc(-c2ccc3occc3c2)nc(C(=O)OCc2ccccc2C(F)(F)F)c1Cl [Example I-37]	100%	100%	90%	100%	90%	100%		
Nc1cc(-c2ccc3occc3c2)nc(C(=O)OCc2cccc(Cl)c2)c1Cl [Example I-38]	100%	100%	90%	100%				
Nc1cc(-c2ccc3ncsc3c2)nc(C(=O)OCc2ccc(F)cc2F)c1Cl [Example I-39]	70%	100%	100%	90%				
Nc1cc(-c2ccc3ccsc3c2)nc(C(=O)OCc2ccccc2Cl)c1Cl [Example I-44]	100%	100%	60%	100%	60%	90%		
Nc1c(F)c(-c2ccc3ccsc3c2)nc(C(=O)OCc2ccc(Cl)cc2)c1Cl [Example I-45]	90%	90%	30%	90%	40%	100%		
Nc1cc(-c2ccc3ccsc3c2)nc(C(=O)OCc2ccc(F)c(F)c2F)c1Cl [Example I-46]					60%	100%	90%	100%
